According to patent US3974137A, “Process for the preparation of 1-[L-(-)-γ-amino-α-hydroxybutyryl]-kanamycin A (RD-1341A)” (priority 1974, dated 1976):
Values after ≈ are worked out from the molar mass of the structure shown. Values joined by “and” are separate entries in the source; they are usually repeats but may differ in a detail not shown here. Identical values can stand only once. Counter-ions that a name gives are not always drawn. Like-named read-outs stand apart in the source and are kept apart here.

Columns and labels:
[1] = Hygroscopicity / water uptake on storage in air; type: physicochemical
Escherichia coli A-20520 [2] = experiment: MIC, in vitro (Table 3); type: cell-based
Description: (§1) ^a MIC =minimum inhibitory concentration (μg./ml.). Tests conducte
(§2) as described by Chisholm et al., (Antimicrob. Agents and
(§3) Chemotherapy-1969, p. 244, 1970) using Mueller-Hinten agar as the test

[3] = test system: Staphylococcus aureus A-9537; experiment: MIC, in vitro (Table 3); type: cell-based
Description: as §1, §2, §3

Escherichia coli A-15119 [4] = experiment: MIC, in vitro (Table 3); type: cell-based; details: A15119, Mueller-Hinten agar, test number 1
Description: as §1, §2, §3

[5] = Bioassay of column fractions (plate assays); type: cell-based; details: pooled column fractions; BB-K8: average of 4 plate assays, ± standard deviation
Description: *Average of 4 plate assays, ± standard deviation.

B. subtilis = experiment: Relative potency, agar plate; type: cell-based; details: standard: kanamycin A free base
Experimental: Compound IV, as recovered from this process, is identical with authentic product obtained by the method described in co-pending application, Ser. No. 221,378. M.p. 194° (dec.) [α]D^21 +85° (c=2, H2 O). […] (standard: kanamycin A free base).

[6] = test system: Staphylococcus aureus A-9537; experiment: CD50 in lethally infected mice; type: in vivo, Staphylococcus aureus (infected mice); details: for ED50: Staphylococcus aureus, A9537, sc, mice, subcutaneous, × 2 treatments (1 and 4 hours post-infection), test number 1, read-out: CD50 (curative dose, 50%); for effectiveness in infected mice (words): kanamycin A-sensitive strain
Experimental: (§4) ^b CD50 =curative dose, 50% (mg./kg./treated × number of
(§5) treatments). Mice were treated subcutaneously at 1 and 4 hours
(§6) post-infection when 2 treatment were administered and at 0, 2, 4 and 6
(§7) hours post-infection when 4 treatment weree given. Other aspects of the
(§8) test were carried out as described by Price et al. (J. of Antibiotics

[7] = test system: gram-positive and gram-negative bacteria; experiment: Antibacterial activity (MIC), overall comparison with kanamycin A; type: cell-based; details: in words
Description: Illustrated below are two tables showing the minimal inhibitory concentrations (MIC's) of kanamycin A and compound IVa (BB-K8) against a variety of gram-positive and gram-negative bacteria as obtained by the Steers agar-dilution method (Table I) and the two-fold dilution method (Table 2). Mueller-Hinton Agar Medium was used in the study of Table 1 and Heart Infusion Broth was used in the study of Table 2.

Escherichia coli A-20520 [8] = experiment: CD50 in lethally infected mice; type: in vivo, Escherichia coli (infected mice); details: for ED50: Escherichia coli, A20520, sc, read-out: CD50 (curative dose, 50%); for effectiveness in infected mice (words): kanamycin-resistant strain
Experimental: as §4, §5, §6, §7, §8

Escherichia coli A-15119 [9] = experiment: CD50 in lethally infected mice; type: in vivo, Escherichia coli (infected mice); details: for ED50: Escherichia coli, A15119, sc, mice, subcutaneous, × 2 treatments (1 and 4 hours post-infection), test number 1, read-out: CD50 (curative dose, 50%); for effectiveness in infected mice (words): kanamycin A-sensitive strain
Experimental: as §4, §5, §6, §7, §8

[10] = mice, subcutaneous, × 4 treatments (0, 2, 4 and 6 hours post-infection), test number 2

SMILES: NCC[C@H](O)C(=O)N[C@@H]1C[C@H](N)[C@@H](O[C@H]2O[C@H](CN)[C@@H](O)[C@H](O)[C@H]2O)[C@H](O)[C@H]1O[C@H]1O[C@H](CO)[C@@H](O)[C@H](N)[C@H]1O [BB-K8^. 2H2 SO4, Disulfate Salt of 1-[L-(-)-γ-amino-α-hydroxybutyryl]-kanamycin A]
- water content after storage in air ([1]; Karl Fisher, in air at room temperature for 18 hours): 9.55% and 9.89%
- hygroscopicity ([1]; disulfate salt): hygroscopic but not deliquescent

SMILES: NCC[C@H](O)C(=O)N[C@@H]1C[C@H](N)[C@@H](O[C@H]2O[C@H](CN)[C@@H](O)[C@H](O)[C@H]2O)[C@H](O)[C@H]1O[C@H]1O[C@H](CO)[C@@H](O)[C@H](N)[C@H]1O [Compound IV, 1-[L-(-)-γ-amino-α-hydroxybutyryl]-kanamycin A]
- MIC (Escherichia coli A-20520 [2]; A20520, Mueller-Hinten agar, test number 1, read-out: MIC): 2 µg/mL (≈ 3.42 µM)
- MIC ([3]; A9537, Mueller-Hinten agar, test number 1, read-out: MIC): 1 µg/mL (≈ 1.71 µM)
- MIC (Escherichia coli A-15119 [4]): 2 µg/mL (≈ 3.42 µM)
- Bioassay [5]: 786±101
- Relative potency against B. subtilis (B. subtilis): 960 µg/mg
- ED50 [6]: 2 mg/kg
- effectiveness in infected mice (words) [6]: equally effective
- effectiveness in infected mice (words) ([6]; listed as compound IV): slightly less active than kanamycin A
- antibacterial activity compared with kanamycin A [7]: excellent antibacterial activity that appears superior to kanamycin A itself
- antibacterial activity compared with kanamycin A ([7]; listed as compound IV): superior to kanamycin A in activity, particularly against kanamycin A resistant organisms
- ED50 (Escherichia coli A-20520 [8]; mice, subcutaneous, × 2 treatments (1 and 4 hours post-infection), test number 1): 66 mg/kg
- ED50 (Escherichia coli A-20520 [8]; [10]): 5 mg/kg
- effectiveness in infected mice (words) (Escherichia coli A-20520 [8]): marked protective action
- times more active in 4-treatment regimen rather than in 2-treatment one (Escherichia coli A-20520 [8]; mice, 4-treatment vs 2-treatment regimen): approximately 10 times
- ED50 (Escherichia coli A-15119 [9]): 2 mg/kg
- effectiveness in infected mice (words) (Escherichia coli A-15119 [9]): equally effective

SMILES: NCC1OC(OC2C(N)CC(N)C(OC3OC(CO)C(O)C(N)C3O)C2O)C(O)C(O)C1O (centres unmarked) [Kanamycin A]
- MIC (Escherichia coli A-20520 [2]; A20520): 125 µg/mL (≈ 258 µM)
- MIC ([3]; A9537): 2 µg/mL (≈ 4.13 µM)
- MIC (Escherichia coli A-15119 [4]): 4 µg/mL (≈ 8.26 µM)
- Bioassay [5]: 809
- ED50 [6]: 0.5 mg/kg
- effectiveness in infected mice (words) [6]: equally effective
- ED50 (Escherichia coli A-20520 [8]): 200 mg/kg
- effectiveness in infected mice (words) (Escherichia coli A-20520 [8]): not very effective in vivo
- CD50 (curative dose, 50%) (Escherichia coli A-20520 [8]; [10]): 200 mg./kg./treated × number of tr
- ED50 (Escherichia coli A-15119 [9]): 4 mg/kg
- effectiveness in infected mice (words) (Escherichia coli A-15119 [9]): equally effective
